From US7163940B2, “Pyrazolopyridinyl pyrimidine therapeutic compounds” (SmithKline Beecham Corporation, priority 2000, dated 2007)

System: not given
Experiment: not given
Conditions: not given

melting point [°C] | SMILES
68 to 75 | CN(C)Cc1cc(-c2c(-c3ccc(F)cc3)nn3c(Cl)cccc23)nc(NC2CCCC2)n1 [Example 50, 4-[7-Chloro-2-(4-fluorophenyl)pyrazolo[1,5-α]pyridin-3-yl]-N-cyclopentyl-6-[(dimethylamino)methyl]-2-pyrimidinamine]

System: HSV-1
Experiment: HSV-1 replication in infected Vero 76 cells, viral DNA hybridization capture assay
Format: cell-based
Conditions: HSV-1, Vero 76 cells, MOI=0.001, 40–48 hours incubation
Description: Vero 76 cells were maintained in MEM with Earle's salts, L-glutamine, 8% FBS (Hyclone, A-1111-L) and 100 units/mL Penicillin-100 μg/mL Streptomycin. For assay conditions, FBS was reduced to 2%. Cells are seeded into 96-well tissue culture plates at a density of 5×10^4 cells/well after being incubated for 45 min at 37° C. in the presence of HSV-1 or HSV-2 (MOI=0.001). Test compounds are added to the wells and the plates are incubated at 37° C. for 40–48 hours. Cell lysates are prepared as follows: media was removed and replaced with 150 μL/well 0.2 N NaOH with 1% Igepal CA 630 or NP-40. Plates were incubated up to 14 days at room temperature in a humidified chamber to prevent evaporation. • (b) Preparation of Detection DNA.
For the detection probe, a gel-purified, digoxigenin-labeled, […] PCR fragment of the HSV UL-15 sequence was utilized. PCR conditions included 0.5 μM primers, 180 μM dTP, 20 μM dUTP-digoxigenin (Boehringer Mannheim 1558706), 200 μM each of dATP, dCTP, and dGTP, 1×PCR Buffer II (Perkin Elmer), 2.5 mM MgCl2, 0.025 units/μL of AmpliTaq Gold polymerase (Perkin Elmer), and 5 ng of gel-purified HSV DNA per 100 μL. Extension conditions were 10 min at 95° C., followed by 30 cycles of 95° C. for 1 min, 55° C. for 30 sec, and 72° C. for 2 min. The amplification was completed with a 10-min incubation at 72° C. Primers were selected to amplify a 728 bp probe spanning a section of the HSV1 UL15 open reading frame (nucleotides 249–977). Single-stranded transcripts were purified with Promega M13 Wizard kits. The final product was mixed 1:1 with a mixture of 6 M GuSCN, 100 mM EDTA and 200 μg/mL herring sperm DNA and stored at 4° C. • (c) Preparation of Capture Plates.
The capture DNA plasmid (HSV UL13 region in pUC) was linearized by cutting with Xba I, denatured for 15 min at 95° C. and diluted immediately into Reacti-Bind DNA Coating Solution (Pierce, 17250, diluted 1:1 with TE buffer, pH 8) at 1 ng/μL 75 μL/well were added to Corning (#3922 or 9690) white 96-well plates and incubated at room temperature for at least 4 hrs before washing twice with 300 μL/well 0.2×SSC/0.05% Tween-20 (SSC/T buffer). The plates were then incubated overnight at room temperature with 150 μL/well 0.2 N NaOH, 1% IGEPAL and 10 μg/mL herring sperm DNA. • (d) Hybridization.
Twenty-seven (27) μL of cell lysate was combined with 45 μL of hybridization solution (final concentration: 3M GuSCN, 50 mM EDTA, 100 μg/ml salmon sperm DNA, 5× Denhardt's solution, 0.25×APE, and 5 ng of the digoxigenin-labeled detection probe). APE is 1.5 M NH4-acetate, 0.15 M ammonium phosphate, and 5 mM EDTA adjusted to pH 6.0. Mineral oil (50 μL) was added to prevent evaporation. The hybridization plates were incubated at 95° C. for 10 minutes to denature the DNA, then incubated at 42° C. overnight. The wells were washed 6× with 300 μL/well SSC/T buffer then incubated with 75 μL/well anti-digoxigenin-HRP-conjugated antibody (Boehringer Mannheim 1207733, 1:5000 in TE) for 30 min at room temperature. The wells were washed 6× with 300 μL/well with PBS/0.05% Tween-20 before 75 μL/well SuperSignal LBA substrate (Pierce) was added. The plates were incubated at room temperature for 30 minutes and chemiluminescence was measured in a Wallac Victor reader. • e) Results.
The following results were obtained for HSV-1.

IC50 [µM] | SMILES
1.2 | CCCCNc1nccc(-c2c(-c3ccc(F)cc3)nn3c(NCCC)cccc23)n1 [Example 55, 3-[2-(Butylamino)-4-pyrimidinyl]-2-(4-fluorophenyl)-N-propylpyrazolo[1,5-α]pyridin-7-amine]

Same assay, conditions: Human alphaherpesvirus 1, Vero 76, HSV-1, Vero 76 cells, MOI=0.001, 40–48 hours incubation

SMILES | IC50 [µM]
CN1CCCC1CCNc1cccc2c(-c3ccncc3)c(-c3ccc(F)cc3)nn12 (stereo not drawn) [Example 57, N-[2-(4-Fluorophenyl)-3-(4-pyridinyl)pyrazolo[1,5-α]pyridin-7-yl]-N-[2-(1-methyl-2-pyrrolidinyl)ethyl]amine] | 0.7
CNc1cccc2c(-c3ccncc3)c(-c3ccc(F)cc3)nn12 [Example 58, 2-(4-Fluorophenyl)-N-methyl-3-(4-pyridinyl)pyrazolo[1,5-α]pyridin-7-amine] | 10.5
CCN(CC)c1cccc2c(-c3ccncc3)c(-c3ccc(F)cc3)nn12 [Example 59, N,N-Diethyl-2-(4-fluorophenyl)-3-(4-pyridinyl)pyrazolo[1,5-α]pyridin-7-amine] | 4
Fc1ccc(-c2nn3c(Br)cccc3c2-c2ccncc2)cc1 [Example 61, 7-Bromo-2-(4-fluorophenyl)-3-pyridin-4-ylpyrazolo[1,5-α]pyridine] | > 20
CCCCNc1cccc2c(-c3ccnc(OCC(F)(F)F)n3)c(-c3ccc(F)cc3)nn12 [Example 68, N-Butyl-2-(4-fluorophenyl)-3-[2-(2,2,2-trifluoroethoxy)pyrimidin-4-yl]pyrazolo[1,5-α]pyridin-7-amine] | > 20
Fc1ccc(-c2nn3c(N4CCCC4)cccc3c2-c2ccnc(N3CCCC3)n2)cc1 [Example 69, 2-(4-Fluorophenyl)-7-pyrrolidin-1-yl-3-(2-pyrrolidin-1-ylpyrimidin-4-yl)pyrazolo[1,5-α]pyridine] | 4.2
Fc1ccc(-c2nn3c(Cl)cccc3c2-c2ccnc(-c3ccccc3)n2)cc1 [Example 73, 7-Chloro-2-(4-fluorophenyl)-3-(2-phenylpyrimidin-4-yl)pyrazolo[1,5-α]pyridine] | > 20
Fc1ccc(-c2nn3c(Cl)cccc3c2-c2ccnc(C3CC3)n2)cc1 [Example 76, 7-Chloro-3-(2-cyclopropylpyrimidin-4-yl)-2-(4-fluorophenyl)pyrazolo[1,5-α]pyridine] | > 20
CC(C)c1nccc(-c2c(-c3ccc(F)cc3)nn3c(Cl)cccc23)n1 [Example 77, 7-Chloro-2-(4-fluorophenyl)-3-(2-isopropylpyrimidin-4-yl)pyrazolo[1,5-α]pyridine] | > 20
CCCCNc1nccc(-c2c(-c3ccc(F)cc3)nn3c(-c4ccco4)cccc23)n1 [Example 78, N-Butyl-4-[2-(4-fluorophenyl)-7-(2-furyl)pyrazolo[1,5-α]pyridin-3-yl]pyrimidin-2-amine] | 0.95
Fc1ccc(-c2nn3c(Cl)cccc3c2-c2ccnc(NC3CC3)n2)cc1 [Example 79, 4-[7-Chloro-2-(4-fluorophenyl)pyrazolo[1,5-α]pyridin-3-yl]-N-cyclopropylpyrimidin-2-amine] | > 20
CSc1cccc2c(-c3cc(NC4CCCC4)ncn3)c(-c3ccc(F)cc3)nn12 [Example 83, N-Cyclopentyl-6-[2-(4-fluorophenyl)-7-(methylthio)pyrazolo[1,5-α]pyridin-3-yl]pyrimidin-4-amine] | 1.3

Second part, the compound after the results:

IC50 [µM] | SMILES
5 | CN(C)Cc1cc(-c2c(-c3ccc(F)cc3)nn3c(Cl)cccc23)nc(NC2CCCC2)n1 [Example 50, 4-[7-Chloro-2-(4-fluorophenyl)pyrazolo[1,5-α]pyridin-3-yl]-N-cyclopentyl-6-[(dimethylamino)methyl]-2-pyrimidinamine]
4.4 | Cc1cc(-c2c(-c3ccc(F)cc3)nn3c(N)cccc23)nc(NC2CCCC2)n1 [Example 72, 3-[2-(Cyclopentylamino)-6-methylpyrimidin-4-yl]-2-(4-fluorophenyl)pyrazolo[1,5-α]pyridin-7-amine]
> 20 | O=C(NC1CCCC1)c1cc(-c2c(-c3ccc(F)cc3)nn3c(Cl)cccc23)nc(NC2CCCC2)n1 [Example 74, 6-[7-Chloro-2-(4-fluorophenyl)pyrazolo[1,5-α]pyridin-3-yl]-N-cyclopentyl-2-(cyclopentylamino)pyrimidine-4-carboxamide]
> 20 | O=C(NC1CCCC1)c1cc(-c2c(-c3ccc(F)cc3)nn3c(NC4CCCC4)cccc23)nc(NC2CCCC2)n1 [Example 75, N-Cyclopentyl-2-(cyclopentylamino)-6-[7-(cyclopentylamino)-2-(4-fluorophenyl)pyrazolo[1,5-α]pyridin-3-yl]pyrimidine-4-carboxamide]
> 20 | Cc1cc(-c2c(-c3ccc(F)cc3)nn3c(NC4CCCC4)cccc23)nc(N(C)C)n1 [Example 81, N-Cyclopentyl-3-[2-(dimethylamino)-6-methylpyrimidin-4-yl]-2-(4-fluorophenyl)pyrazolo[1,5-α]pyridin-7-amine]
> 20 | Fc1ccc(-c2nn3c(NC4CCCC4)cccc3c2-c2cc(-c3ccccc3)nc(NC3CCCC3)n2)cc1 [Example 82, N-Cyclopentyl-3-[2-(cyclopentylamino)-6-phenylpyrimidin-4-yl]-2-(4-fluorophenyl)pyrazolo[1,5-α]pyridin-7-amine]
1.3 | Fc1ccc(-c2nn3c(NC4CCCC4)cccc3c2-c2cc(NC3CCCC3)ncn2)cc1 [Example 84, N-cyclopentyl-3-[6-(cyclopentylamino)pyrimidin-4-yl]-2-(4-fluorophenyl)pyrazolo[1,5-α]pyridin-7-amine]
